According to ChEMBL document CHEMBL1177790, “Activity of substituted thiophene sulfonamides against malarial and mammalian cyclin dependent protein kinases” (Bioorg Med Chem Lett, 2010):
pIC50: −log10 of the molar value.

Tests used:
LoVo = assay: Cytotoxicity against human LoVo cells after 24 hrs by MTT assay; assay type: functional, cell-based
DU-145 = assay: Cytotoxicity against human DU145 cells after 24 hrs by MTT assay; assay type: functional, cell-based; details: DU-145, 24 h
[1] = Cytotoxicity against human Hs578 cells after 24 hrs by MTT assay; assay type: functional, cell-based; details: Hs578, 24 h
[2] = biological target: Cyclin-dependent kinase 1/cyclin B1 (Homo sapiens, UniProt P06493); assay: Inhibition of human CDK1/cyclin B; assay type: protein-complex assay
Sequence of Cyclin-dependent kinase 1/cyclin B1 (P06493 whole entry): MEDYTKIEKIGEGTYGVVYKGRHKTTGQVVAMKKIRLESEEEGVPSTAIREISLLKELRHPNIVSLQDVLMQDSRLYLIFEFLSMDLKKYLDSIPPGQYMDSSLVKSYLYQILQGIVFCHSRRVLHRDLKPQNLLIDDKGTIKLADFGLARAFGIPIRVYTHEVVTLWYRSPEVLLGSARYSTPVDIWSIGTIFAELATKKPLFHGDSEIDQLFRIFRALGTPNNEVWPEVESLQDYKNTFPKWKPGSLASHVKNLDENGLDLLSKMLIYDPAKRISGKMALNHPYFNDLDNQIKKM
Sequence of Cyclin-dependent kinase 1/cyclin B1 (P14635 whole entry, further chain): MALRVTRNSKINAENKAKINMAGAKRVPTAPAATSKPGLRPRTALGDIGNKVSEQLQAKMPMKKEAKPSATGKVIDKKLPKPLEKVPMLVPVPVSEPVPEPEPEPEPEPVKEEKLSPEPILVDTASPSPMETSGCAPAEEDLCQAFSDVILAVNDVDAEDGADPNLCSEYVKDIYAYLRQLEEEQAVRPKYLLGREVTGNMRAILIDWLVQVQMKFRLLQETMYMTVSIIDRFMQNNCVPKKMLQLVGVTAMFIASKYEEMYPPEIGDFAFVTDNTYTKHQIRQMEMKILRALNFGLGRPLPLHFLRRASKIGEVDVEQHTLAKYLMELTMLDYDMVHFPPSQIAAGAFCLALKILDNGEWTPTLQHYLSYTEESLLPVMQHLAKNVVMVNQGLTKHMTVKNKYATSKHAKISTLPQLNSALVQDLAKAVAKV

RAW264.7 = assay: Cytotoxicity against mouse RAW264.7 cells after 24 hrs by MTT assay; assay type: cell-based; details: RAW264.7, 24 h
Plasmodium falciparum = assay: Antimalarial activity against chloroquine-resistant Plasmodium falciparum W2 assessed as inhibition of [3H]hypoxanthine incorporation after 24 hrs by microtiter plate scintillation counting; assay type: functional, organism-based
MCF7 = assay: Cytotoxicity against human MCF7 cells after 24 hrs by MTT assay; assay type: functional, cell-based; details: MCF7, 24 h
[3] = biological target: Cyclin-dependent kinase 2/cyclin A (Homo sapiens, UniProt P24941); assay: Inhibition of human CDK2/Cyclin A; assay type: protein-complex assay
CDK6/cyclin D1 = CDK6/cyclin D1 (Homo sapiens, UniProt Q00534); assay: Inhibition of human CDK6/Cyclin D1; assay type: protein-complex assay
Sequence of CDK6/cyclin D1 (P24385 whole entry): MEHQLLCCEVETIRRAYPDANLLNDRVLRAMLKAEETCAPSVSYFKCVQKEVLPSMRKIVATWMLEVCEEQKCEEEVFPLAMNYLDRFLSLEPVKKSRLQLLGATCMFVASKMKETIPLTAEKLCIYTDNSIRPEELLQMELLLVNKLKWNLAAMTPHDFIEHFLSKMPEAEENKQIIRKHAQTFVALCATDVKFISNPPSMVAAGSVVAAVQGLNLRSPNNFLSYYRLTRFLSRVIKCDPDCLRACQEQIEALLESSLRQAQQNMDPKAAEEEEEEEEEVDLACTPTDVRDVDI
Sequence of CDK6/cyclin D1 (Q00534 whole entry): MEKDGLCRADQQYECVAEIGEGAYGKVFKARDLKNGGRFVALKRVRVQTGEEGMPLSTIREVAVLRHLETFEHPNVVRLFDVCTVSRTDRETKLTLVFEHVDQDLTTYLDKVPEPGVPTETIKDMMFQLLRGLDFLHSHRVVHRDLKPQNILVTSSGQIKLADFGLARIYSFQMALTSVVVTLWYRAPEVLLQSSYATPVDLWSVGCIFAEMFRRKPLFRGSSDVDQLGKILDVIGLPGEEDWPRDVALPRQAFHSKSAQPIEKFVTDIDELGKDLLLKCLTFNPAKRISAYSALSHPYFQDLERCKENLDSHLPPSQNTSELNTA

[4] = biological target: Cyclin-dependent kinase 7/ cyclin H (Homo sapiens, UniProt P50613); assay: Inhibition of human CDK7/Cyclin H/MAT1; assay type: protein-complex assay
Sequence of Cyclin-dependent kinase 7/ cyclin H (P51946 whole entry): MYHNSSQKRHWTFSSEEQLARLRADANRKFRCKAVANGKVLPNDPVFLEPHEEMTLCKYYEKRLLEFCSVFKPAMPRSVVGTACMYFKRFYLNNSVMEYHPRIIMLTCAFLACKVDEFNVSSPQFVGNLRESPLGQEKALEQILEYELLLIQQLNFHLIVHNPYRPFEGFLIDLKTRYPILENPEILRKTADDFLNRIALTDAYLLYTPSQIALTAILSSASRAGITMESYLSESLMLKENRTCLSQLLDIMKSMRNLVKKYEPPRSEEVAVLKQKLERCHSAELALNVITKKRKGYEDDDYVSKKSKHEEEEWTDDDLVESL
Sequence of Cyclin-dependent kinase 7/ cyclin H (P50613 whole entry): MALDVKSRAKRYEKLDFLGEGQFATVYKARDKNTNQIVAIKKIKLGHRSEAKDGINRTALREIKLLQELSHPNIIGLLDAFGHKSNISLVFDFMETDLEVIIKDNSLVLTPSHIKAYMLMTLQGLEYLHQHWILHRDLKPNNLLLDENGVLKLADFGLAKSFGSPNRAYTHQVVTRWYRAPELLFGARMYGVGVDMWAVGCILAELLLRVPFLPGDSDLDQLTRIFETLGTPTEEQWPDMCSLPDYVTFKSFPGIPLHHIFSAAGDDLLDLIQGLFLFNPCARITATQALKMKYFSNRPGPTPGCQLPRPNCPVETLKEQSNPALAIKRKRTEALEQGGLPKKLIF

Protein kinase Pfmrk = biological target: T1, Protein kinase Pfmrk (Plasmodium falciparum, UniProt P90584); assay: Inhibition of His6x-tagged Plasmodium falciparum Pfmrk expressed in Escherichia coli by microtiter plate scintillation counting
T1 sequence (P90584 whole entry): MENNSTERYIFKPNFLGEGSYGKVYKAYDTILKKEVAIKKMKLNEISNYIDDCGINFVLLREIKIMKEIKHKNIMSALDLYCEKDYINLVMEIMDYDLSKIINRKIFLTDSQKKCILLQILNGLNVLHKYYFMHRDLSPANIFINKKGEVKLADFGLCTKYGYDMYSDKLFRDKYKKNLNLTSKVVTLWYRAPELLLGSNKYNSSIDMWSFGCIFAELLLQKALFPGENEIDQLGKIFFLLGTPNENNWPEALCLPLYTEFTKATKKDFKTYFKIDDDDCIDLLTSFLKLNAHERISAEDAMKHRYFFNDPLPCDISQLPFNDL

[5] = Therapeutic index, IC50 for Plasmodium falciparum W2 to IC50 for mice (Mus musculus) RAW264.7 cells

Cc1ccc(NS(=O)(=O)c2cc(Cl)sc2Cl)cc1
pIC50 (LoVo): 4.16 | pIC50 (DU-145): 4.09 | pIC50 [1]: 4.40 | pIC50 [2]: 4.31 | pIC50 (RAW264.7): 4.13 | pIC50 (Plasmodium falciparum): 4.51 | pIC50 (MCF7): 4.18 | pIC50 [3]: 4.50 | pIC50 (CDK6/cyclin D1): 4.29 | pIC50 [4]: 6.10 | pIC50 (Protein kinase Pfmrk): 6.22

O=C(NNC(=O)c1ccccc1F)c1ccc2ccccc2c1
pIC50 (Protein kinase Pfmrk): 6.40

O=S(=O)(Nc1ccc(Cl)cc1SC(Cl)(Cl)Cl)c1cc(Cl)sc1Cl
pIC50 (Protein kinase Pfmrk): 4.71

O=C(CBr)N(c1ccc(Cl)cc1)S(=O)(=O)c1cc(Cl)sc1Cl
pIC50 (Protein kinase Pfmrk): 6.10

O=S(=O)(Nc1cccc(C(F)(F)F)c1)c1ccc(Cl)cc1
pIC50 (Protein kinase Pfmrk): 4.88

Cc1ccc(NS(=O)(=O)c2ccc(Br)cc2)cc1Cl
pIC50 (Protein kinase Pfmrk): 4.80

O=S(=O)(Nc1cccc(C(F)(F)F)c1)c1cc(Cl)c(Cl)cc1Cl
pIC50 (LoVo): 4.19 | pIC50 (DU-145): 4.35 | pIC50 [1]: 4.26 | pIC50 [2]: 7.00 | pIC50 (RAW264.7): 4.04 | pIC50 (Plasmodium falciparum): 4.61 | pIC50 (MCF7): 4.20 | pIC50 [3]: 5.00 | pIC50 (CDK6/cyclin D1): 4.23 | pIC50 [4]: 6.70 | pIC50 (Protein kinase Pfmrk): 6.22

COc1ccc(S(=O)(=O)Nc2cccc(C(F)(F)F)c2)cc1
pIC50 (Protein kinase Pfmrk): 4.32

O=S(=O)(Nc1cc(Cl)cc(Cl)c1)c1cc(Cl)sc1Cl
pIC50 (Protein kinase Pfmrk): 3.48

Cc1ccc(Cl)cc1S(=O)(=O)Nc1ccc(Cl)c(Cl)c1
pIC50 (LoVo): 4.26 | pIC50 (DU-145): 4.34 | pIC50 [1]: 4.27 | pIC50 [2]: 6.10 | pIC50 (RAW264.7): 4.12 | pIC50 (Plasmodium falciparum): 4.77 | pIC50 (MCF7): 4.24 | pIC50 [3]: 4.98 | pIC50 (CDK6/cyclin D1): 3.96 | pIC50 [4]: 6.40 | pIC50 (Protein kinase Pfmrk): 4.82

N#CC(NCC(O)c1ccccc1)c1ccc(Cl)c(Cl)c1 (stereo not drawn)
pIC50 (Protein kinase Pfmrk): 6.22

Cc1ccc(N(SC(Cl)(Cl)Cl)S(=O)(=O)c2cc(Cl)sc2Cl)cc1
pIC50 (LoVo): 4.15 | pIC50 (DU-145): 4.28 | pIC50 [1]: 4.60 | pIC50 [2]: 4.98 | pIC50 (RAW264.7): 4.41 | pIC50 (Plasmodium falciparum): 4.67 | pIC50 (MCF7): 4.52 | pIC50 [3]: 4.94 | pIC50 (CDK6/cyclin D1): 4.74 | pIC50 [4]: 6.15 | pIC50 (Protein kinase Pfmrk): 6.52

O=S(=O)(Nc1ccccc1)c1cc(Cl)sc1Cl
pIC50 (Protein kinase Pfmrk): 4.83

O=S(=O)(c1cc(Cl)sc1Cl)N(SC(Cl)(Cl)Cl)c1ccccc1
pIC50 (Protein kinase Pfmrk): 4.53

Cc1cc(Cl)ccc1NS(=O)(=O)c1cc(Cl)ccc1Cl
pIC50 (Protein kinase Pfmrk): 4.96

Cc1cccc(C)c1N(C(=O)CCl)S(=O)(=O)c1cc(Cl)sc1Cl
pIC50 (Protein kinase Pfmrk): 4.68

O=S(=O)(Nc1ccc(Cl)cc1)c1c(Cl)sc(Cl)c1Cl
pIC50 (Protein kinase Pfmrk): 4.50

Cc1ccc(N(C(=O)C(Cl)Cl)S(=O)(=O)c2cc(Cl)sc2Cl)cc1
pIC50 (Protein kinase Pfmrk): 3.90

Cc1ccc(Cl)cc1NS(=O)(=O)c1cc(Cl)ccc1Cl
pIC50 (Protein kinase Pfmrk): 4.34

O=S(=O)(Nc1ccc(C(F)(F)F)cc1)c1ccc(C(F)(F)F)cc1
pIC50 (Protein kinase Pfmrk): 4.78

Cc1cc(C)c(NS(=O)(=O)c2ccc(Br)cc2)c(C)c1NS(=O)(=O)c1ccc(Br)cc1
pIC50 (Protein kinase Pfmrk): 4.30

OC(c1cc(C(F)(F)F)nc2c(C(F)(F)F)cccc12)C1CCCCN1 (stereo not drawn) [MEFLOQUINE]
pIC50 (LoVo): 5.10 | pIC50 (DU-145): 4.84 | pIC50 [1]: 4.92 | pIC50 (RAW264.7): 5.19 | pIC50 (Plasmodium falciparum): 7.00 | pIC50 (MCF7): 4.97 | selectivity ratio [5]: 65

Cc1ccccc1NC(=O)NC(=O)c1ccccc1Cl
pIC50 (Protein kinase Pfmrk): 6.70

O=C1Cc2c([nH]c3ccc([N+](=O)[O-])cc23)-c2ccccc2N1 [ALSTERPAULLONE]
pIC50 (LoVo): > 6.00 | pIC50 (DU-145): 5.96 | pIC50 [1]: 5.72 | pIC50 (RAW264.7): 5.66 | pIC50 (MCF7): 5.57

NS(=O)(=O)c1cc([N+](=O)[O-])c(Cl)s1
pIC50 (Protein kinase Pfmrk): 4.76

O=C(CBr)N(c1ccccc1)S(=O)(=O)c1cc(Cl)sc1Cl
pIC50 (LoVo): 4.15 | pIC50 (DU-145): 4.04 | pIC50 [1]: 4.29 | pIC50 [2]: 4.67 | pIC50 (RAW264.7): 4.05 | pIC50 (Plasmodium falciparum): 4.63 | pIC50 (MCF7): 4.21 | pIC50 [3]: 4.55 | pIC50 (CDK6/cyclin D1): 4.46 | pIC50 [4]: 4.48 | pIC50 (Protein kinase Pfmrk): 6.22

O=C1Nc2ccccc2/C1=C1/Nc2ccccc2C1=O [INDIRUBIN]
pIC50 (LoVo): 5.66 | pIC50 (DU-145): 5.17 | pIC50 [1]: 5.16 | pIC50 (RAW264.7): 5.21 | pIC50 (Plasmodium falciparum): 5.96 | pIC50 (MCF7): 5.17

Cc1ccc(N(C(=O)CCl)S(=O)(=O)c2c(Cl)sc(Cl)c2Cl)cc1
pIC50 (Protein kinase Pfmrk): 4.40
